Reference: patent publication US10150739B2, “Crystalline form of androgen receptor inhibitor and preparation method thereof” (priority 2015, dated 2018)
pIC50: −log10 of the molar value. Read-outs that look alike come from different tables or passages of the source.

Key:
AIPC [1] = details: mouse; cited from earlier work
AIPC [2] = details: human; cited from earlier work
[3] = type: physicochemical
Method: (§1) The compound of formula (I) (0.5 g, 1.04 mmol) (prepared according to Example 1) and the compound of formula (I) (0.5 g, 1.04 mmol) (prepared according to Example 11) were added to a 25 mL one-necked flask, followed by addition of 4.0 mL of ethyl acetate-isopropyl ether (v:v=1:1). The mixture was pulped at room temperature, then filtered and dried to obtain a solid (872 mg, yield: 87.2%).
as §1, with “12)” for “11)”, “(850” for “(872”, “85.0%).” for “87.2%).”

[4] = type: physicochemical; remark: listed apart in the source
Method: Samplings were carried out on Day 5 and Day 10.

[5] = type: physicochemical; details: for Crystal form / Purity: 25° C., RH 60%
Method: The sample was placed under conditions of 25° C., RH 60% for a long period of time, and regular sampling was carried out to determine the purity.

[6] = type: physicochemical; remark: listed apart in the source
[7] = system: five major subtypes of CYP450; details: cited from earlier work
AR [8] = molecular target: T1, AR (Homo sapiens, UniProt P10275); details: cited from earlier work
T1 sequence (P10275 1-920): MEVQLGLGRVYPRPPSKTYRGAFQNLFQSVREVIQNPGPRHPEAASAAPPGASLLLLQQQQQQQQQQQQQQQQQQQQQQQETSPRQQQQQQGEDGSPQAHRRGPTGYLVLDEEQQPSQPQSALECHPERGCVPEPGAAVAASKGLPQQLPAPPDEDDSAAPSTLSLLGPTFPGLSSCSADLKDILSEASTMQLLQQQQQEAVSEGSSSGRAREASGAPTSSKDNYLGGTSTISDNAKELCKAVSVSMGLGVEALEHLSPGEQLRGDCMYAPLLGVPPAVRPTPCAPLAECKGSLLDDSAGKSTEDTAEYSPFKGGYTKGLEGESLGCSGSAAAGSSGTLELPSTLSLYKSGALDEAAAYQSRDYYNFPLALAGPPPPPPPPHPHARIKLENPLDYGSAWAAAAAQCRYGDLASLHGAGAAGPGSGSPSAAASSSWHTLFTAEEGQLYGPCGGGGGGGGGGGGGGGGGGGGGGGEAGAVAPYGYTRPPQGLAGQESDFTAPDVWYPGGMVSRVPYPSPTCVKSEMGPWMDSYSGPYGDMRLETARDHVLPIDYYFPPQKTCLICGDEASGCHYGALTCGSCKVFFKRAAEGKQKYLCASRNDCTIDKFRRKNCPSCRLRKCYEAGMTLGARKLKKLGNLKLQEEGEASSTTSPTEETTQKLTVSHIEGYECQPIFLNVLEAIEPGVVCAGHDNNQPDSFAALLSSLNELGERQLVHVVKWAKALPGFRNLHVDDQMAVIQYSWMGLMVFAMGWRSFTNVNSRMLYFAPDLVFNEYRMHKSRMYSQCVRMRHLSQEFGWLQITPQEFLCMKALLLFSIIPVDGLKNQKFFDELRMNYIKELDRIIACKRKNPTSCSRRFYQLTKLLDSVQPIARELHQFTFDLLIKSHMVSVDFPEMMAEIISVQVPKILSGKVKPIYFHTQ

[9] = mouse, in vivo; cited from earlier work
AR [10] = molecular target: T1, AR; details: compared with MDV-3100; cited from earlier work
[11] = rat; cited from earlier work
[12] = dog; cited from earlier work
hERG = hERG (Homo sapiens, UniProt Q12809); details: cited from earlier work
Sequence of hERG (Q12809 whole entry): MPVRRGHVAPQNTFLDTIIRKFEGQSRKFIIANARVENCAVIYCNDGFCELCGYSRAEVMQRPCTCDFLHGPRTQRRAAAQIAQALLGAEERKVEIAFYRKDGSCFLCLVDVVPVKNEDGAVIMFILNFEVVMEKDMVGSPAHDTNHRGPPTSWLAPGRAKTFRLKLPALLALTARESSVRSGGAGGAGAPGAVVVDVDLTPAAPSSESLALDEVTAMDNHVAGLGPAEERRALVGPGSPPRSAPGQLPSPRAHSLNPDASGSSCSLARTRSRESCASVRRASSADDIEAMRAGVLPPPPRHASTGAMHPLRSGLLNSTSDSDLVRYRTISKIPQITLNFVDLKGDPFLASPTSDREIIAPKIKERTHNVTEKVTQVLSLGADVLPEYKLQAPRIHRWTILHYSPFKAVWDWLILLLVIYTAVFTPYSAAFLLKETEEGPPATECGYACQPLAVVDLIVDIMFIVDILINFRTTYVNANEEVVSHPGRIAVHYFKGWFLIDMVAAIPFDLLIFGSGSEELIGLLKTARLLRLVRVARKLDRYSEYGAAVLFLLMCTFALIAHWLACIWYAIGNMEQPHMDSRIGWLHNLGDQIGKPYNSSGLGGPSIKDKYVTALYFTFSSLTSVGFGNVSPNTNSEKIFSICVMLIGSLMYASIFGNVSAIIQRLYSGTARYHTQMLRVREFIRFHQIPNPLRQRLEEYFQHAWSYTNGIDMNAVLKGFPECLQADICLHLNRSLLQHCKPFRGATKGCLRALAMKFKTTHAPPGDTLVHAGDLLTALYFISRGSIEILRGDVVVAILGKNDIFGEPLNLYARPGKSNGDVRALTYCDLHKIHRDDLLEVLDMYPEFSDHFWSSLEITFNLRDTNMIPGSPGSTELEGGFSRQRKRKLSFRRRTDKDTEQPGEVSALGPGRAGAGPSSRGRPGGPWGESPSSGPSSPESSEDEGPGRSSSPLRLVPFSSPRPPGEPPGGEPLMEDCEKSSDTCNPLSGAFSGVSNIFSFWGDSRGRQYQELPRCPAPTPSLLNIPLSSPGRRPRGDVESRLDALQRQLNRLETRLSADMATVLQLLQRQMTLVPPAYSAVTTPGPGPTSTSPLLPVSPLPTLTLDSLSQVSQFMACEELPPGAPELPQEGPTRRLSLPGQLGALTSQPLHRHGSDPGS

**Q.** For `CNC(=O)c1ccc(N2C(=S)N(c3ccc(C#N)c(C(F)(F)F)c3)C(=O)C2(C)C)cc1F` [MDV-3100], which “inhibition of growth of AIPC” value (AIPC [1]) is on record?
**A.** can inhibit the growth of AIPC

**Q.** And the “inhibition of growth of AIPC” value (AIPC [2])?
**A.** can inhibit the growth of AIPC

**Q.** Which “relative stability of crystal forms” value [3] does the source give for `CC1(C)C(=O)N(c2ccc(C#N)c(C(F)(F)F)c2)C(=S)N1c1ccc(OC[C@@H](O)CO)cc1` [Crystal form I, (S)-4-(3-(4-(2,3-dihydroxypropoxy)phenyl)-4,4-dimethyl-5-carbonyl-2-thioimidazolin-1-yl)-2-(trifluoromethyl)benzonitrile] here?
**A.** more stable

**Q.** What about the “purity as detected by HPLC” value ([4]; 40° C., day 0) of the same compound?
**A.** 99.93%

**Q.** And the “purity as detected by HPLC” value ([4]; 40° C., day 5)?
**A.** 99.91%

**Q.** What about the “purity as detected by HPLC” value ([4]; 40° C., day 10) of the same compound?
**A.** 99.91%

**Q.** What about the “purity as detected by HPLC” value ([4]; 60° C., day 0) of the same compound?
**A.** 99.93%

**Q.** What about the “purity as detected by HPLC” value ([4]; 60° C., day 5) of the same compound?
**A.** 99.92%

**Q.** What about the “purity as detected by HPLC” value ([4]; 60° C., day 10) of the same compound?
**A.** 99.90%

**Q.** What about the “purity as detected by HPLC” value ([4]; Lighting (4500 Lux), day 0) of the same compound?
**A.** 99.93%

**Q.** And the “purity as detected by HPLC” value ([4]; Lighting (4500 Lux), day 5)?
**A.** 99.91%

**Q.** And the “purity as detected by HPLC” value ([4]; Lighting (4500 Lux), day 10)?
**A.** 99.91%

**Q.** And the “purity as detected by HPLC” value ([4]; RH 75%, day 0)?
**A.** 99.93%

**Q.** What about the “purity as detected by HPLC” value ([4]; RH 75%, day 5) of the same compound?
**A.** 99.89%

**Q.** And the “purity as detected by HPLC” value ([4]; RH 75%, day 10)?
**A.** 99.91%

**Q.** And the “purity as detected by HPLC” value ([4]; RH 90%, day 0)?
**A.** 99.93%

**Q.** And the “purity as detected by HPLC” value ([4]; RH 90%, day 5)?
**A.** 99.92%

**Q.** And the “purity as detected by HPLC” value ([4]; RH 90%, day 10)?
**A.** 99.92%

**Q.** And the Crystal form ([5]; 0 month)?
**A.** Crystal form I

**Q.** What about the Purity ([5]; 0 month) of the same compound?
**A.** 99.93%

**Q.** And the Crystal form ([5]; 6 months)?
**A.** Crystal form I

**Q.** And the Purity ([5]; 6 months)?
**A.** 99.93%

**Q.** And the Purity ([5]; 12 months)?
**A.** 99.93%

**Q.** What about the Purity ([5]; 24 months) of the same compound?
**A.** 99.93%

**Q.** What about the Crystal form ([5]; 36 months) of the same compound?
**A.** Crystal form I

**Q.** And the Purity ([5]; 36 months)?
**A.** 99.94%

**Q.** And the long-term storage stability ([5]; 36 months)?
**A.** stable after placing under such conditions for 36 months

**Q.** And the DSC peak ([6]; after grinding treatment for 10 minutes)?
**A.** 158.26 °C

**Q.** And the DSC peak ([6]; after heating treatment for 3 hours at 80° C.)?
**A.** 158.17 °C

**Q.** What about the DSC peak ([6]; after pressing treatment) of the same compound?
**A.** 158.33 °C

**Q.** With `CC1(C)C(=O)N(c2ccc(C#N)c(C(F)(F)F)c2)C(=S)N1c1ccc(OC[C@@H](O)CO)cc1` [compound of formula (I), (S)-4-(3-(4-(2,3-dihydroxypropoxy)phenyl)-4,4-methyl-5-carbonyl-2-thioimidazolin-1-yl)-2-(trifluoromethyl)benzonitrile] as the compound, how does the pIC50 [7] read?
**A.** < 4.30

**Q.** And the AR agonist activity (AR [8]; at 3 μM)?
**A.** no AR agonist activity

**Q.** What about the AR agonist activity (AR [8]; at 10 μM) of the same compound?
**A.** no AR agonist activity

**Q.** And the “ratio of drug concentration in brain tissue to drug concentration in plasma” value [9]?
**A.** much lower than that of MDV-3100

**Q.** And the activity in vitro (AR [10])?
**A.** slightly better than that of MDV-3100

**Q.** And the in vivo exposure [11]?
**A.** comparable to that of MDV-3100

**Q.** What about the in vivo exposure [12] of the same compound?
**A.** more than six times that of MDV-3100

**Q.** What about the pIC50 (hERG) of the same compound?
**A.** 4.61

**Q.** Which crystal form transformation ([3]; pulped with crystal form I in ethyl acetate-isopropyl ether (v:v=1:1) at room temperature) does the source give for `CC1(C)C(=O)N(c2ccc(C#N)c(C(F)(F)F)c2)C(=S)N1c1ccc(OC[C@@H](O)CO)cc1` [crystal form III] here?
**A.** can be transformed into crystal form I
